Tested on: AAD2 (v1)-transformed T1 Arabidopsis
Test: T1 Arabidopsis response to postemergence herbicide, % visual injury 2 WAT: native AAD2 (v1) transformants
Type: in vivo, Arabidopsis thaliana
Settings: Native AAD2 gene
Source text: Table 16. […] Response is presented in terms of % visual injury 2 WAT. […] Since each T1 is an independent transformation event, one can expect significant variation of individual T1 responses within a given rate. An arithmetic mean and standard deviation is presented for each treatment. The range in individual response is also indicated in the last column for each rate and transformation. PAT/Cry1F-transformed Arabidopsis served as an auxin-sensitive transformed control. Wildtype Arabidopsis is untransformed.
Freshly harvested T1 seed transformed with a native [AAD1 (v2)], plant optimized [AAD1 (v3)], or native AAD2 (v1) gene was allowed to dry for 7 days at room temperature. T1 seed was sown in 26.5×51-cm germination trays (T.O. Plastics Inc., Clearwater, Minn.), each receiving a 200 mg aliquots of stratified T1 seed (˜10,000 seed) that had previously been suspended in 40 ml of 0.1% agarose solution and stored at 4° C. for 2 days to complete dormancy requirements and ensure synchronous seed germination.
Sunshine Mix LP5 (Sun Gro Horticulture Inc., Bellevue, Wash.) was covered with fine vermiculite and subirrigated with Hoagland's solution until wet and then allowed to gravity drain. Each 40 ml aliquot of stratified seed was sown evenly onto the vermiculite with a pipette and covered with humidity domes (KORD Products, Bramalea, Ontario, Canada) for 4-5 days. Domes were removed 1 day prior to initial transformant selection using glufosinate postemergence spray (selecting for the co-transformed PAT gene).
Five to six days after planting (DAP) and again 10 DAP, T1 plants (cotyledon and 2-4-1f stage, respectively) were sprayed with a 0.2% solution of Liberty herbicide (200 g ai/L glufosinate, Bayer Crop Sciences, Kansas City, Mo.) at a spray volume of 10 ml/tray (703 L/ha) using a DeVilbiss compressed air spray tip to deliver an effective rate of 280 g ai/ha glufosinate per application. Survivors (plants actively growing) were identified 5-7 days after the final spraying and transplanted individually into 3-inch pots prepared with potting media (Metro Mix 360). Transplanted plants were covered with humidity domes for 3-4 days and placed in a 22° C. growth chamber as before. Domes were subsequently removed and plants moved to the greenhouse (22+5° C., 50+30% RH, 14 hours light:10 dark, minimum 500 μE/m^2s^1 natural+supplemental light) at least 1 day prior to testing for the ability of AAD1 (v3), AAD1 (v2), or AAD2 (v1) to provide phenoxy auxin herbicide resistance.
Random individual T1 plants selected for glufosinate resistance above were confirmed for expression of the PAT protein using a PAT ELISA kit (Part no. 7000045, Strategic Diagnostics, Inc., Newark, Del.) to non-destructively confirm fidelity of selection process (manufacturer's protocol).
Herbicide applications were applied by track sprayer in a 187 L/ha spray volume.

O=C(O)COc1ccc(Cl)cc1Cl [2,4-D, 2,4-dichlorophenoxyacetic acid]
% Injury Ave (50 g ae/ha): 68.2% | individuals with 20-40% injury (50 g ae/ha): 2 | individuals with <20% injury (50 g ae/ha): 1 | individuals with >40% injury (50 g ae/ha): 11 | individuals with 20-40% injury (200 g ae/ha): 3 | individuals with <20% injury (200 g ae/ha): 0 | individuals with >40% injury (200 g ae/ha): 11 | % Injury Ave (800 g ae/ha): 99.8% | individuals with 20-40% injury (800 g ae/ha): 0 | individuals with <20% injury (800 g ae/ha): 0 | individuals with >40% injury (800 g ae/ha): 14

Source: patent US10450549B2, “Aryloxyphenoxypropionate tolerance in turfrgass species and use of AAD1 as a selectable marker” (Dow AgroSciences, LLC, priority 2004, dated 2019)
